Reference: patent US20170210751A1, “PRMT5 INHIBITORS AND USES THEREOF” (Epizyme, Inc., priority 2014, published 2017)

How the values were obtained:
Z-138 cell line = test: Z-138 Proliferation Assay (Cell Titer Glo); format: cell-based; settings: Homo sapiens, 120 h; Z-138 cells, 5 days incubation, ATP (Cell Titer Glo)
Description: Z-138 Proliferation Assay
Z-138 suspension cells were purchased from ATCC (American Type Culture Collection, Manassas, Va.). RPMI/Glutamax medium, penicillin-streptomycin, heat inactivated fetal bovine serum were purchased from Life Technologies, Grand Island, N.Y., USA. V-bottom polypropylene 384-well plates were purchased from Greiner Bio-One, Monroe, N.C., USA. Cell culture 384-well white opaque plates were purchased from Perkin Elmer, Waltham, Mass., USA. Cell-Titer Glo® was purchased from Promega Corporation, Madison, Wis., USA. SpectraMax M5 plate reader was purchased from Molecular Devices LLC, Sunnyvale, Calif., USA.
Z-138 suspension cells were maintained in growth medium (RPMI 1640 supplemented with 10% v/v heat inactivated fetal bovine serum and cultured at 37° C. under 5% CO2. Under assay conditions, cells were incubated in assay medium (RPMI 1640 supplemented with 10% v/v heat inactivated fetal bovine serum and 100 units/mL penicillin-streptomycin) at 37° C. under 5% CO2.
For the assessment of the effect of compounds on the proliferation of the Z-138 cell line, exponentially growing cells were plated in 384-well white opaque plates at a density of 10,000 cells/ml in a final volume of 50 μl of assay medium. A compound source plate was prepared by performing triplicate nine-point 3-fold serial dilutions in DMSO, beginning at 10 mM (final top concentration of compound in the assay was 20 μM and the DMSO was 0.2%). A 100 nL aliquot from the compound stock plate was added to its respective well in the cell plate. […] After addition of compounds, assay plates were incubated for 5 days at 37° C., 5% CO2, relative humidity >90%.
Cell viability was measured by quantitation of ATP present in the cell cultures, adding 35 μl of Cell Titer Glo® reagent to the cell plates. Luminescence was read in the SpectraMax M5 microplate reader. The concentration of compound inhibiting cell viability by 50% was determined using a 4-parametric fit of the normalized dose response curves.

PRMT5/MEP50 = biological target: T1, PRMT5/MEP50 (Homo sapiens, UniProt O14744); test: PRMT5 Biochemical Assay (PRMT5/MEP50 enzyme assay on peptide substrate, 3H-SAM Flashplate); settings: PRMT5/MEP50 4 nM, 3H-SAM 75 nM, peptide 40 nM, 30 min preincubation at 25 degrees Celsius
T1 construct: Flag-PRMT5; made in house; host or cells: Spodoptera frugiperda (SF9) insect cells, baculovirus (pDEST8)
T1 sequence (O14744 with tags, fused parts or gaps): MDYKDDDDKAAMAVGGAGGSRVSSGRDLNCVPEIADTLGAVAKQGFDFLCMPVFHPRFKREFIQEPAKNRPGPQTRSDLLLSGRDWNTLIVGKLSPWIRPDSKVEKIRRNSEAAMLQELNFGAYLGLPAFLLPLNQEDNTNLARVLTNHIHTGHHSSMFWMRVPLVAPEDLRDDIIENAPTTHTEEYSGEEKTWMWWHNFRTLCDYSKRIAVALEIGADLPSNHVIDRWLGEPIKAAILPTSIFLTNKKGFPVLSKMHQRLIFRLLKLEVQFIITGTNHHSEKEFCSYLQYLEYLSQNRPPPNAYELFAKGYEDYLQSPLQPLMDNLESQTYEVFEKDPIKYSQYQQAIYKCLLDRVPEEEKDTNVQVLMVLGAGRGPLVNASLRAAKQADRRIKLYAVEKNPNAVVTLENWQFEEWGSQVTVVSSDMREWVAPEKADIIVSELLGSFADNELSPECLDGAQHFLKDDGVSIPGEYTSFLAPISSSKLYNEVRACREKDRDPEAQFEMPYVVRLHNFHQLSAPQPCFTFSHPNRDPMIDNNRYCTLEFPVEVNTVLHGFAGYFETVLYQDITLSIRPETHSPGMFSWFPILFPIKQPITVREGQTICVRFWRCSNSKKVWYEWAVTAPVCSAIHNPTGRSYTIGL
T1 sequence (Q9BQA1 with tags, fused parts or gaps partner limits assumed): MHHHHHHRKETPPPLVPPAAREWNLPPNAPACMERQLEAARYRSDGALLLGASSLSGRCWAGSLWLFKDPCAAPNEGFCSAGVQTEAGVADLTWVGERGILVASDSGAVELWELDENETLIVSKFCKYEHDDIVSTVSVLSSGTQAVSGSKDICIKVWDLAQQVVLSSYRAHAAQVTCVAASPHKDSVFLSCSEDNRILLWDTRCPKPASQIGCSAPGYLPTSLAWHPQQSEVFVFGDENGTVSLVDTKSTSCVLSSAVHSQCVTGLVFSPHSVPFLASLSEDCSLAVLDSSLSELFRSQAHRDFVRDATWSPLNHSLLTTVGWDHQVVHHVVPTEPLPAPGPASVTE
Description: S-adenosylmethionine (SAM), S-adenosylhomocysteine (SAH), bicine, KCl, Tween20, dimethylsulfoxide (DMSO), bovine skin gelatin (BSG), and Tris(2-carboxyethyl)phosphine hydrochloride solution (TCEP) were purchased from Sigma-Aldrich at the highest level of purity possible. ^3H-SAM was purchase from American Radiolabeled Chemicals with a specific activity of 80 Ci/mmol. 384-well streptavidin Flashplates were purchased from PerkinElmer.
Peptide representative of human histone H4 residues 1-15 was synthesized with a C-terminal linker-affinity tag motif and a C-terminal amide cap by 21st Century Biochemicals. The peptide was high high-performance liquid chromatography (HPLC) purified to greater than 95% purity and confirmed by liquid chromatography mass spectrometry (LC-MS). The sequence was Ac-[…][K-Biot]-amide (SEQ ID NO.:3).
Full-length human PRMT5 (NM_006109.3) transcript variant 1 clone was amplified from a fetal brain cDNA library, incorporating flanking 5′ sequence encoding a FLAG tag ([…]) (SEQ ID NO.:4) fused directly to Ala 2 of PRMT5. Full-length human MEP50 (NM_024102) clone was amplified from a human testis cDNA library incorporating a 5′ sequence encoding a 6-histidine tag (MHHHHHH) (SEQ ID NO.:5) fused directly to Arg 2 of MEP50. The amplified genes were sublconed into pENTR/D/TEV (Life Technologies) and subsequently transferred by Gateway™ attL×attR recombination to pDEST8 baculvirus expression vector (Life Technologies).
Recombinant baculovirus and Baculovirus-Infected Insect Cells (BIIC) were generated according to Bac-to-Bac kit instructions (Life Technologies) and Wasilko, 2006, respectively. Protein over-expression was accomplished by infecting exponentially growing Spodoptera frugiperda (SF9) cell culture at 1.2×10^6 cell/ml with a 5000 fold dilution of BIIC stock. Infections were carried out at 27° C. for 72 hours, harvested by centrifugation, and stored at −80° C. for purification.
Flag-PRMT5/6His-MeP50 was eluted with 300 mM Imidazole in the same buffer. The purity of recovered protein was 87%. Reference: Wasilko, D. J. and S. E. Lee: “TIPS: titerless infected-cells preservation and scale-up” Bioprocess J., 5 (2006), pp. 29-32.
General Procedure for PRMT5/MEP50 Enzyme Assays on Peptide Substrates.
The assays were all performed in a buffer consisting of 20 mM Bicine (pH=7.6), 1 mM TCEP, 0.005% BSG, and 0.002% Tween20, prepared on the day of use. Compounds in 100% DMSO (1 ul) were spotted into a polypropylene 384-well V-bottom plates (Greiner) using a Platemate Plus outfitted with a 384-channel head (Thermo Scientific). DMSO (1 ul) was added to Columns 11, 12, 23, 24, rows A-H for the maximum signal control and 1 ul of SAH, a known product and inhibitor of PRMT5/MEP50, was added to columns 11, 12, 23, 24, rows I-P for the minimum signal control. A cocktail (40 ul) containing the PRMT5/MEP50 enzyme and the peptide was added by Multidrop Combi (Thermo-Fisher). The compounds were allowed to incubate with PRMT5/MEP50 for 30 min at 25 degrees Celsius, then a cocktail (10 ul) containing ^3H-SAM was added to initiate the reaction (final volume=51 ul). The final concentrations of the components were as follows: PRMT5/MEP50 was 4 nM, ^3H-SAM was 75 nM, peptide was 40 nM, SAH in the minimum signal control wells was 100 uM, and the DMSO concentration was 1%. The assays were stopped by the addition of non-radioactive SAM (10 ul) to a final concentration of 600 uM, which dilutes the ^3H-SAM to a level where its incorporation into the peptide substrate is no longer detectable. 50 ul of the reaction in the 384-well polypropylene plate was then transferred to a 384-well Flashplate and the biotinylated peptides were allowed to bind to the streptavidin surface for at least 1 hour before being washed three times with 0.1% Tween20 in a Biotek ELx405 plate washer. […]

[1] = tested on: Symmetric di-Methyl Arginine in Z-138 cells; test: Z-138 Methylation Assay (In Cell Western for symmetric di-methyl arginine); format: cell-based; settings: Homo sapiens, 96 hours incubation, symmetric di-methyl arginine normalised to DNA content, read-out: ICW EC50
Description: Z-138 suspension cells were purchased from ATCC (American Type Culture Collection, Manassas, Va.). RPMI/Glutamax medium, penicillin-streptomycin, heat inactivated fetal bovine serum, and D-PBS were purchased from Life Technologies, Grand Island, N.Y., USA. Odyssey blocking buffer, 800CW goat anti-rabbit IgG (H+L) antibody, and Licor Odyssey infrared scanner were purchased from Licor Biosciences, Lincoln, Nebr., USA. Symmetric di-methyl arginine antibody was purchased from EMD Millipore, Billerica, Mass., USA. 16% Paraformaldehyde was purchased from Electron Microscopy Sciences, Hatfield, Pa., USA.
Z-138 suspension cells were maintained in growth medium (RPMI 1640 supplemented with 10% v/v heat inactivated fetal bovine serum and 100 units/mL penicillin-streptomycin) and cultured at 37° C. under 5% CO2.
Cell Treatment, In Cell Western (ICW) for detection of Symmetric di-Methyl Arginine and DNA content.
Z-138 cells were seeded in assay medium at a concentration of 50,000 cells per mL to a 384-well cell culture plate with 50 μL per well. Compound (100 nL) from 384 well source plates was added directly to 384 well cell plate. Plates were incubated at 37° C., 5% CO2 for 96 hours. After four days of incubation, 40 μL of cells from incubated plates were added to poly-D-lysine coated 384 well culture plates (BD Biosciences 356697). Plates were incubated at room temperature for 30 minutes then incubated at 37° C., 5% CO2 for 5 hours. After the incubation, 40 μL per well of 8% paraformaldehyde in PBS (16% paraformaldahyde was diluted to 8% in PBS) was added to each plate and incubated for 30 minutes. Plates were transferred to a Biotek 405 plate washer and washed 5 times with 100 μL per well of wash buffer (IX PBS with 0.1% Triton X-100 (v/v)). Next […] well of Odyssey blocking buffer were added to each plate and incubated 1 hour at room temperature. Blocking buffer was removed and 20 μL per well of primary antibody was added (symmetric di-methyl arginine diluted 1:100 in Odyssey buffer with 0.1% Tween 20 (v/v)) and plates were incubated overnight (16 hours) at 4° C. Plates were washed 5 times with 100 μL per well of wash buffer. Next 20 μL per well of secondary antibody was added (1:200 800CW goat anti-rabbit IgG (H+L) antibody, 1:1000 DRAQ5 (Biostatus limited) in Odyssey buffer with 0.1% Tween 20 (v/v)) and incubated for 1 hour at room temperature. The plates were washed 5 times with 100 μL per well wash buffer then 1 time with 100 μL per well of water. Plates were allowed to dry at room temperature then imaged on the Licor Odyssey machine which measures integrated intensity at 700 nm and 800 nm wavelengths. Both 700 and 800 channels were scanned.
First, the ratio for each well was determined by:
Each plate included fourteen control wells of DMSO only treatment (minimum inhibition) as well as fourteen control wells for maximum inhibition treated with 3 μM of a reference compound (Background wells). The average of the ratio values for each control type was calculated and used to determine the percent inhibition for each test well in the plate. Reference compound was serially diluted three-fold in DMSO for a total of nine test concentrations, beginning at 3 μM. Percent inhibition was determined and IC50 curves were generated using triplicate wells per concentration of compound.

SMILES | IC50 (PRMT5/MEP50) | EC50 (Z-138 cell line) | EC50 [1]
OC(COc1cccc(CNC2CCCC2)c1)CN1CCc2ncccc2C1 (stereo not drawn) [Compound 2-1, 1-(3-((cyclopentylamino)methyl)phenoxy)-3-(7,8-dihydro-1,6-naphthyridin-6(5H)-yl)propan-2-ol] | > 50 µM | > 40 µM | –
O=C(NC[C@H](O)CN1CCc2cccnc2C1)c1cc(NC2COC2)ncn1 [Compound 2-10] | 1 to 10 µM | 1 to 10 µM | –

The next lines start with results.

IC50 (PRMT5/MEP50) | SMILES | EC50 (Z-138 cell line) | EC50 [1]
10 to 50 µM | OC(COc1cccc(CNC2CCCC2)c1)CN1CCc2[nH]nc(-c3ccccc3)c2C1 (stereo not drawn) [Compound 3-9, 1-(3-((cyclopentylamino)methyl)phenoxy)-3-(3-phenyl-6,7-dihydro-1H-pyrazolo[4,3-c]pyridin-5(4H)-yl)propan-2-ol] | 10 to 50 µM | –
> 50 µM | OC(COc1cccc(CNC2CCCC2)c1)CN1CCc2[nH]ncc2C1 (stereo not drawn) [Compound 3-14] | > 40 µM | –
> 10 µM | O=C(NC[C@H](O)CN1CCc2[nH]ncc2C1)c1cc(NC2COC2)ncn1 [Compound 3-19] | – | > 1 µM
> 10 µM | O=C(NC[C@H](O)CN1CCc2cn[nH]c2C1)c1cc(NC2COC2)ncn1 [Compound 3-39] | > 5 µM | –
